Laboratory results as given in patent publication US20080138463A1, “Lactobacillus buchneri strain LN5689 and its use to improve aerobic stability of silage” (Pioneer Hi-Bred International, Inc., priority 2006, published 2008).

Tests used:
[1] = pH of grass silage after ensiling; format: physicochemical, ryegrass; details: for pH: PVC silos
Protocol: Second cut ryegrass was harvested at PLNC. The grass was determined to have an approximate dry matter of 35%. Inoculation: Individual strains were supplied as fresh grown overnight culture. Cultures were adjusted to a standard concentration of 5.0×10^7 CFU/mL and applied using a syringe at a rate of 2.2 mL/kg of forage. The application rate for all strains was 1.1×10^5 CFU/g forage. Propionic acid (88%) was applied at a rate of 4.4 mL/kg fresh forage. PVC Silos: PVC silos were filled at a packing density of 0.288 kg DM/silo (100 kg DM/m^3); approximately 0.82-0.95 kg/silo. Silos were air infused for 24 hours on days 28 and 42, and opened after 50-60 days of ensiling.

[2] = Aerobic stability of grass silage (method of Honig); design: species or system ryegrass
Protocol: Second cut ryegrass was harvested at PLNC. The grass was determined to have an approximate dry matter of 35%.
Inoculation: Individual strains were supplied as fresh grown overnight culture. Cultures were adjusted to a standard concentration of 5.0×10^7 CFU/mL and applied using a syringe at a rate of 2.2 mL/kg of forage. The application rate for all strains was 1.1×10^5 CFU/g forage. Propionic acid (88%) was applied at a rate of 4.4 mL/kg fresh forage.
PVC Silos: PVC silos were filled at a packing density of 0.288 kg DM/silo (100 kg DM/m^3); approximately 0.82-0.95 kg/silo. Silos were air infused for 24 hours on days 28 and 42, and opened after 50-60 days of ensiling.
Aerobic Stability: The method of Honig (Proc. Of the Eurobac. Conf., P. Lingvall and S. Lindgren (ed.) (12-16 Aug. 1986) Swed. Univ. of Agric. Sci. Grass and Forage Report No. 3-1990. Pp. 76-81. Uppsala, Sweden.) was used for measuring aerobic stability (see Table 1). ROT is defined as the time, in hours, for the silage to heat 1.7° C. after exposure to air. Cumm_DD is the integral value of the area between the time ROT is attained and the end of the experiment. Aerobic dry matter loss (% dry matter) was determined relating the increase in temperature and the time to energy losses occurring in the silage.

[3] = average across replicate studies A, B, C

CCC(=O)O [Propionic Acid, Propionic acid]
pH ([1]; replicate study A): 4.03
pH ([1]; replicate study B): 4.17
pH ([1]; replicate study C): 4.18
pH Avg. [1, 3]: 4.13
Aerobic deterioration compared with control grass silages [2]: significantly less aerobic deterioration than the control
Improvement of aerobic stability over the control ([2]; LN5689 1.1×10^5 CFU/g forage, propionic acid (88%) 4.4 mL/kg): 96 h
Aerobic Dry Matter Loss Avg. [2, 3]: 0.43 % dry matter
ROT Avg. [2, 3]: 127 h
Aerobic Dry Matter Loss ([2]; replicate study A): 0.29 % dry matter
ROT (time for the silage to heat 1.7° C. after exposure to air) ([2]; replicate study A): 137 h
Aerobic Dry Matter Loss ([2]; replicate study B): 0 % dry matter
ROT (time for the silage to heat 1.7° C. after exposure to air) ([2]; replicate study B): 160 h
Aerobic Dry Matter Loss ([2]; replicate study C): 1.01 % dry matter
ROT (time for the silage to heat 1.7° C. after exposure to air) ([2]; replicate study C): 86 h
